The source made the active and inactive calls. The calls are words filed in the database; no cut-off is given here. Non-standard residues stand in square brackets, D forms with d. Residues, ends and D or L forms follow the SMILES beside them. *: point of attachment. Biotin = O=C1N[C@H]2[C@H](CS[C@H]2CCCCC(=O)*)N1; Lys(Me3) = C[N+](C)(C)CCCC[C@H](N)C(=O)O; Benzoyl(4-Br) = O=C(c1ccc(Br)cc1)*
Assays:
[1] = target: T1, Chromobox protein homolog 7 (Homo sapiens) (UniProt O95931); test: Binding affinity to recombinant human CBX7 by microarray based assay
T1 sequence (whole entry): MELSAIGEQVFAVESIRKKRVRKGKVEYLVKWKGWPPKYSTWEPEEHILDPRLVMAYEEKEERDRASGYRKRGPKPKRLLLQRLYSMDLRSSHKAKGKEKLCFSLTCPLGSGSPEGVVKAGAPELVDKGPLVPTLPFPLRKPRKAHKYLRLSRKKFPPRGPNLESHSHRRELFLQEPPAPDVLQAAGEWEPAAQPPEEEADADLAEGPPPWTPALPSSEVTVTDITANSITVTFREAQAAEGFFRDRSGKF

[2] = target: Mortality factor 4-like protein 1 (Homo sapiens) (UniProt Q9UBU8); test: Binding affinity to recombinant human MORF4L1 by microarray based assay
[3] = target: T2, E3 SUMO-protein ligase CBX4 (Homo sapiens) (UniProt O00257); test: Binding affinity to recombinant human CBX4 by microarray based assay
T2 sequence (whole entry): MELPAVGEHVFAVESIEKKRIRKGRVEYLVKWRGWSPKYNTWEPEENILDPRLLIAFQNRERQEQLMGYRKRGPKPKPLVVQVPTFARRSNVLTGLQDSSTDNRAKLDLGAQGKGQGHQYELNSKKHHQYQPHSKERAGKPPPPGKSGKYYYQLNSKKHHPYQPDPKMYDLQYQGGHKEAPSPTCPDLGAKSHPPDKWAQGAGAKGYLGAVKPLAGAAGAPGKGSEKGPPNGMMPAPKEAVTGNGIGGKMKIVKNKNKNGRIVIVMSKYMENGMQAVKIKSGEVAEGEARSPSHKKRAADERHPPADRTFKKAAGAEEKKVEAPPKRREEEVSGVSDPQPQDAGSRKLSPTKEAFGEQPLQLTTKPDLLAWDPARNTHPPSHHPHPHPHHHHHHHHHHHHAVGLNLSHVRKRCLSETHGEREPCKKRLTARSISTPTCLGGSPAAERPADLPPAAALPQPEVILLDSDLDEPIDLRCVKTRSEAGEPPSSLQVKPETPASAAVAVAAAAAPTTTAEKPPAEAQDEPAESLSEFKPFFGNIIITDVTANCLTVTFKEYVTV

[4] = target: T3, Chromodomain Y-like protein 2 (Homo sapiens) (UniProt Q8N8U2); test: Binding affinity to recombinant human CDYL2 by microarray based assay
T3 sequence (whole entry): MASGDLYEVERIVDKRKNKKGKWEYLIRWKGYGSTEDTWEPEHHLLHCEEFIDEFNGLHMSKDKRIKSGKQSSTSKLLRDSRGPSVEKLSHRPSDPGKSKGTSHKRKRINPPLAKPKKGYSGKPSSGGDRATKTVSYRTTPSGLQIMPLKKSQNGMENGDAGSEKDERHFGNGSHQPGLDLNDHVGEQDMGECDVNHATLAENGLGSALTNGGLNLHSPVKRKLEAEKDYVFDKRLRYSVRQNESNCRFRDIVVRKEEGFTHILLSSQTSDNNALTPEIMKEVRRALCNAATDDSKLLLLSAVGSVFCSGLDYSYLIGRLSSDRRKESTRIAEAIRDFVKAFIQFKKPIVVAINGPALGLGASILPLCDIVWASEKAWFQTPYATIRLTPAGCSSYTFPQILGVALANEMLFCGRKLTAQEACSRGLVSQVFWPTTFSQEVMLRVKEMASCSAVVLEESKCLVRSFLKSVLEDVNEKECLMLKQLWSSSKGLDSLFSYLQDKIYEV

[5] = target: T4, Chromobox protein homolog 8 (Homo sapiens) (UniProt Q9HC52); test: Binding affinity to recombinant human CBX8 by microarray based assay
T4 sequence (whole entry): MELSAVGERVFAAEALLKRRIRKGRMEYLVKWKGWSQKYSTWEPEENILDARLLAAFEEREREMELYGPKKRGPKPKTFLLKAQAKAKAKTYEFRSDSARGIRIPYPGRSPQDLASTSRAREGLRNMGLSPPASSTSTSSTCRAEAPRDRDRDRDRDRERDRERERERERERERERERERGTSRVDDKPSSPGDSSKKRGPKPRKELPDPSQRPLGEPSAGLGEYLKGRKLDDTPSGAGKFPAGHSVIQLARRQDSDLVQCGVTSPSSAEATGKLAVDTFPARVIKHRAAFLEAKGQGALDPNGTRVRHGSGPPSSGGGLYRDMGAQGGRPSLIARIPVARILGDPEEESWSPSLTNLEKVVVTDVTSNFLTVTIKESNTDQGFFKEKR

[6] = target: T5, Testis-specific chromodomain protein Y 1 (Homo sapiens) (UniProt Q9Y6F8); test: Binding affinity to recombinant human CDY1 by microarray based assay
T5 sequence (whole entry): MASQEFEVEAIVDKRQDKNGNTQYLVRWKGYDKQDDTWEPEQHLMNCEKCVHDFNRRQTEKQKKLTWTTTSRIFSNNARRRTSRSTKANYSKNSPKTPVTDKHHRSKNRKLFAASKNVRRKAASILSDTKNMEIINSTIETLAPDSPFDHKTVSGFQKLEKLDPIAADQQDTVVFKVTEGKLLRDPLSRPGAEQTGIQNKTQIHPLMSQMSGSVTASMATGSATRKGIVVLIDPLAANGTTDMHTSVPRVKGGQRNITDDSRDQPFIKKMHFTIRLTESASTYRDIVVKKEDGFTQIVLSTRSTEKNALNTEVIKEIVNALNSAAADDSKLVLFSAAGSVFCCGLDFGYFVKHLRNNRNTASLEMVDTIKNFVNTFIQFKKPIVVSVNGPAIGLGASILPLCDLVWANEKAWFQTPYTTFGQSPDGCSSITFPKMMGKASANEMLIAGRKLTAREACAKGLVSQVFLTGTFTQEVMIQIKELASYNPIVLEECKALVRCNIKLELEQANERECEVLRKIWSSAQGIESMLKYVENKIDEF

[7] = target: T6, Chromobox protein homolog 2 (Homo sapiens) (UniProt Q14781); test: Binding affinity to recombinant human CBX2 by microarray based assay
T6 sequence (whole entry): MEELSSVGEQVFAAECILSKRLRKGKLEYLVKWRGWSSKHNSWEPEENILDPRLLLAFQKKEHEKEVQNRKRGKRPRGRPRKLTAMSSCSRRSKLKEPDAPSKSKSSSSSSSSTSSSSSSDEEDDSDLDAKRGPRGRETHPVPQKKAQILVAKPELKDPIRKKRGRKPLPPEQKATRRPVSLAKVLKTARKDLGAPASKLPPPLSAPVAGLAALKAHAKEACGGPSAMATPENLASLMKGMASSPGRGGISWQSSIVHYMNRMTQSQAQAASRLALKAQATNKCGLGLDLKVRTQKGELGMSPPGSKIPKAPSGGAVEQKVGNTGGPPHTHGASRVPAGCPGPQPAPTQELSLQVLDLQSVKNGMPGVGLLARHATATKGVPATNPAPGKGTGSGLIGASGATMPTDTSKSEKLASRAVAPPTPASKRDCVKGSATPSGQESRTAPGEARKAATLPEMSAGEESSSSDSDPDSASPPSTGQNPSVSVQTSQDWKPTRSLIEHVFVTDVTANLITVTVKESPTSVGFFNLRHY

Mortality factor 4-like protein 1 (Homo sapiens), sequence (Q9UBU8 whole entry): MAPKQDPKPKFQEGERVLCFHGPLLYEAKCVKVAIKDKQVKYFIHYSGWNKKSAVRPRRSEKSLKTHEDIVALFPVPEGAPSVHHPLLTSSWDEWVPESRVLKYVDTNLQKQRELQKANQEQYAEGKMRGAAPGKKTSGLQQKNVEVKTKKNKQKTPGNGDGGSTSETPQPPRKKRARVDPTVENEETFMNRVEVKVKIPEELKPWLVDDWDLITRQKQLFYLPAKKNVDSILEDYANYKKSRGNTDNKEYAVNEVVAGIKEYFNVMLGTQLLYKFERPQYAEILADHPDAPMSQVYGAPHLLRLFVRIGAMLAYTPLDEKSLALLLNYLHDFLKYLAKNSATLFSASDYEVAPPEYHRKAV

Activity [1]: Active
Activity [3]: Active
Activity [4]: Active
Activity [5]: Active
Activity [6]: Active
Activity [7]: Active
Structure (SMILES): CC(C)C[C@H](NC(=O)[C@H](CO)NC(=O)[C@H](CCCC[N+](C)(C)C)NC(=O)[C@H](Cc1ccc(O)cc1)NC(=O)[C@H](C)NC(=O)[C@H](Cc1ccccc1)NC(=O)c1ccc(Br)cc1)C(=O)N[C@@H](CCCCNC(=O)CCCC[C@@H]1SC[C@@H]2NC(=O)N[C@@H]21)C(N)=O ({Benzoyl(4-Br)}-FAY[Lys(Me3)]SLK(Biotin)-NH2)
Activity [2]: Active

From ChEMBL document CHEMBL4609983, “Pan-specific and partially selective dye-labeled peptidic inhibitors of the polycomb paralog proteins” (Bioorg Med Chem, 2020)
